# US10335363B2, “Skin care composition and method of making the same” (The Procter & Gamble Company, priority 2015, dated 2019)
# System: interleukin-18 (IL-18)
# Experiment: Skin sensitization potential (IL-18 production in HEK)
# Assay type: cell-based, human
# Settings: fold change of IL-18 vs vehicle control, HEK lysates, 16 hours
# From the text: It is possible for a material to not be cytotoxic, and yet be unsafe due to provoking an allergic reaction upon skin contact. Typically, initial exposure to an allergen sensitizes the immune system, and following exposures cause an allergic response. Recent progress in understanding the mechanisms of skin sensitization identified interleukin-18 (IL-18) production in normal human epidermal keratinocytes (HEK) as a useful biomarker for skin contact sensitization (Corsini, et al., “Use of IL-18 Production In a Human Keratinocyte Cell Line to Discriminate Contact Sensitizers from Irritants and Low Molecular Weight Respiratory Allergens.” Toxicol In Vitro. 2009 August; 23(5):789-96; Teunis, et al., “Transfer of a Two-tiered Keratinocyte Assay: IL-18 Production by NCTC2544 to Determine the Skin Sensitizing Capacity and Epidermal Equivalent Assay to Determine Sensitizer Potency.” Toxicol In Vitro. 2013 April; 27(3):1135-50). […] Thus, IL-18 production in HEK was evaluated to determine sensitization potential.
# Normal human adult epidermal keratinocytes (HEK) were cultured as described above for the cytoxicity evaluation. […] The cell lysates were collected, and IL-18 was quantified using Human IL-18 ELISA Kit (Catalog #7620, produced by MBL International Co., Woburn, Mass., USA). […] Fold changes of IL-18 levels between test articles and respective vehicle controls were calculated and compared to pPD. […]
smiles,measurement,value
"Nc1ccc(N)cc1 [benchmark sensitizer, para-phenylenediamine]",IL18 Maximum fold,7.8 fold)
